Assay results: ChEMBL document CHEMBL5120829, “Discovery and structural optimization of potent epidermal growth factor receptor (EGFR) inhibitors against L858R/T790M/C797S resistance mutation for lung cancer treatment” (Eur J Med Chem, 2022)
Active and inactive are the calls of the source. The rule behind the calls is not given here.

Tests used:
[1] = molecular target: Signal transducer and activator of transcription 3 (Homo sapiens) (UniProt P40763); experiment: Inhibition of STAT3 phosphorylation in human PC-9 cells expressing EGFR L858R/T790M/C797S mutant at 0.01 to 1 uM by Western blot analysis; format: cell-based; settings: dose 0.01-1 µM
[2] = test system: Epidermal growth factor receptor (Homo sapiens), P00533 [L858R,T790M,C797S]; experiment: Inhibition of EGFR phosphorylation in human PC-9 cells expressing EGFR L858R/T790M/C797S mutant at 0.01 to 1 uM by Western blot analysis; format: cell-based; settings: dose 0.01-1 µM
[3] = test system: Epidermal growth factor receptor (Homo sapiens), P00533 [L858R,T790M,C797S]; experiment: Inhibition of EGFR L858R/T790M/C797S mutant (unknown origin) at 0.5 uM relative to control
[4] = test system: Epidermal growth factor receptor (Homo sapiens), P00533 [L858R,T790M,C797S]; experiment: Inhibition of EGFR L858R/T790M/C797S mutant (unknown origin) at 1 uM relative to control
[5] = molecular target: Epidermal growth factor receptor (Homo sapiens, UniProt P00533, C797S/L858R/T790M); experiment: Inhibition of EGFR L858R/T790M/C797S mutant (unknown origin)
PC-9 [6] = experiment: Antiproliferative activity against human PC-9 cells expressing EGFR L858R/T790M/C797S mutant assessed as inhibition of cell growth incubated for 72 hrs by CCK-8 assay; format: functional, cell-based; settings: PC-9, 72 h
A-431 = experiment: Antiproliferative activity against human A-431 cells assessed as inhibition of cell growth incubated for 72 hrs by CCK-8 assay; format: functional, cell-based; settings: A-431, 72 h
A549 = experiment: Antiproliferative activity against human A549 cells assessed as inhibition of cell growth incubated for 72 hrs by CCK-8 assay; format: functional, cell-based; settings: A549, 72 h
PC-9 [7] = experiment: Cell cycle arrest in human PC-9 cells expressing EGFR L858R/T790M/C797S mutant assessed as increase in accumulation of cells at G0/G1 phase at 0.01 to 1 uM incubated for 24 hrs by RNase/PI staining based flow cytometry analysis; format: functional; settings: dose 0.01-1 µM
PC-9 [8] = experiment: Induction of apoptosis in human PC-9 cells expressing EGFR L858R/T790M/C797S mutant assessed as viable cells at 0.01 uM incubated for 24 hrs by annexin-V/propidium iodide staining-based flow cytometry analysis (reference value: 99.1 %); format: functional; settings: read-out: Activity
PC-9 [9] = experiment: Induction of apoptosis in human PC-9 cells expressing EGFR L858R/T790M/C797S mutant assessed as early apoptotic cells at 0.01 uM incubated for 24 hrs by annexin-V/propidium iodide staining-based flow cytometry analysis (reference value: 0.3 %); format: functional
PC-9 [10] = experiment: Induction of apoptosis in human PC-9 cells expressing EGFR L858R/T790M/C797S mutant assessed as late apoptotic cells at 0.01 uM incubated for 24 hrs by annexin-V/propidium iodide staining-based flow cytometry analysis (reference value: 0.14 %); format: functional
PC-9 [11] = experiment: Induction of apoptosis in human PC-9 cells expressing EGFR L858R/T790M/C797S mutant assessed as dead cells at 0.01 uM incubated for 24 hrs by annexin-V/propidium iodide staining-based flow cytometry analysis (reference value: 0.43 %); format: functional
PC-9 [12] = experiment: Induction of apoptosis in human PC-9 cells expressing EGFR L858R/T790M/C797S mutant assessed as viable cells at 0.05 uM incubated for 24 hrs by annexin-V/propidium iodide staining-based flow cytometry analysis (reference value: 99.1 %); format: functional; settings: read-out: Activity
PC-9 [13] = experiment: Induction of apoptosis in human PC-9 cells expressing EGFR L858R/T790M/C797S mutant assessed as early apoptotic cells at 0.05 uM incubated for 24 hrs by annexin-V/propidium iodide staining-based flow cytometry analysis (reference value: 0.3 %); format: functional
PC-9 [14] = experiment: Induction of apoptosis in human PC-9 cells expressing EGFR L858R/T790M/C797S mutant assessed as late apoptotic cells at 0.05 uM incubated for 24 hrs by annexin-V/propidium iodide staining-based flow cytometry analysis (reference value: 0.14 %); format: functional
PC-9 [15] = experiment: Induction of apoptosis in human PC-9 cells expressing EGFR L858R/T790M/C797S mutant assessed as dead cells at 0.05 uM incubated for 24 hrs by annexin-V/propidium iodide staining-based flow cytometry analysis (reference value: 0.43 %); format: functional
PC-9 [16] = experiment: Induction of apoptosis in human PC-9 cells expressing EGFR L858R/T790M/C797S mutant assessed as viable cells at 0.25 uM incubated for 24 hrs by annexin-V/propidium iodide staining-based flow cytometry analysis (reference value: 99.1 %); format: functional; settings: Homo sapiens, PC-9, read-out: Activity
PC-9 [17] = experiment: Induction of apoptosis in human PC-9 cells expressing EGFR L858R/T790M/C797S mutant assessed as early apoptotic cells at 0.25 uM incubated for 24 hrs by annexin-V/propidium iodide staining-based flow cytometry analysis (reference value: 0.3 %); format: functional
PC-9 [18] = experiment: Induction of apoptosis in human PC-9 cells expressing EGFR L858R/T790M/C797S mutant assessed as late apoptotic cells at 0.25 uM incubated for 24 hrs by annexin-V/propidium iodide staining-based flow cytometry analysis (reference value: 0.14 %); format: functional
PC-9 [19] = experiment: Induction of apoptosis in human PC-9 cells expressing EGFR L858R/T790M/C797S mutant assessed as dead cells at 0.25 uM incubated for 24 hrs by annexin-V/propidium iodide staining-based flow cytometry analysis (reference value: 0.43 %); format: functional
[20] = molecular target: Serine/threonine-protein kinase AKT (Homo sapiens) (UniProt P31751+Q9Y243+P31749); experiment: Inhibition of AKT phosphorylation in human PC-9 cells expressing EGFR L858R/T790M/C797S mutant at 0.01 to 1 uM by Western blot analysis; format: cell-based; settings: dose 0.01-1 µM
PC-9 [21] = experiment: Antitumor activity against human PC-9 cells expressing EGFR L858R/T790M/C797S mutant xenografted in po dosed BALB/c nude mouse assessed as inhibition of tumor growth measured every other day for 18 days by digital vernier caliper analysis; format: functional, organism-based; settings: dose 10-40 mg/kg, time 18.0 day, DDE = dose-dependent effect
PC-9 [22] = experiment: Antitumor activity against human PC-9 cells expressing EGFR L858R/T790M/C797S mutant xenografted in BALB/c nude mouse assessed as reduction in tumor weight at 10 to 40 mg/kg, po measured every day for 18 days by digital vernier caliper analysis; format: functional, organism-based; settings: dose 10-40 mg/kg, time 18.0 day
[23] = Toxicity in BALB/c nude mouse xenografted with human PC-9 cells expressing EGFR L858R/T790M/C797S mutant assessed as body weight loss at 10 to 40 mg/kg, po measured every day for 18 days; format: organism-based; settings: in vivo, 432 h, dose 10-40 mg/kg, time 18 day
[24] = AUC(0 to infinity) in overnight fasted Sprague-Dawley rat at 20 mg/kg, iv by HPLC analysis; format: ADME, organism-based; design: time infinity, dose 20 mg/kg, route iv; settings: in vivo
[25] = AUC(0 to infinity) in overnight fasted Sprague-Dawley rat at 20 mg/kg, po by HPLC analysis; format: ADME, organism-based; design: time infinity, dose 20 mg/kg, route po; settings: in vivo
[26] = Cmax in overnight fasted Sprague-Dawley rat at 20 mg/kg, iv by HPLC analysis; format: ADME, organism-based; design: dose 20 mg/kg, route iv; settings: in vivo
[27] = Cmax in overnight fasted Sprague-Dawley rat at 20 mg/kg, po by HPLC analysis; format: ADME, organism-based; design: dose 20 mg/kg, route po; settings: in vivo
[28] = Tmax in overnight fasted Sprague-Dawley rat at 20 mg/kg, iv by HPLC analysis; format: ADME, organism-based; settings: in vivo
[29] = Tmax in overnight fasted Sprague-Dawley rat at 20 mg/kg, po by HPLC analysis; format: ADME, organism-based; settings: in vivo
[30] = Oral bioavailability in overnight fasted Sprague-Dawley rat at 20 mg/kg by HPLC analysis; format: ADME, organism-based; settings: in vivo
[31] = MRT (0 to infinity) in overnight fasted Sprague-Dawley rat at 20 mg/kg, iv by HPLC analysis; format: ADME, organism-based; settings: in vivo
[32] = MRT (0 to infinity) in overnight fasted Sprague-Dawley rat at 20 mg/kg, po by HPLC analysis; format: ADME, organism-based; settings: in vivo
[33] = Volume of distribution at steady state in overnight fasted Sprague-Dawley rat at 20 mg/kg, iv by HPLC analysis; format: ADME, organism-based; settings: in vivo, read-out: Vdss
[34] = Volume of distribution at steady state in overnight fasted Sprague-Dawley rat at 20 mg/kg, po by HPLC analysis; format: ADME, organism-based; settings: in vivo
[35] = Clearance in overnight fasted Sprague-Dawley rat at 20 mg/kg, iv by HPLC analysis; format: ADME, organism-based; settings: in vivo
[36] = Clearance in overnight fasted Sprague-Dawley rat at 20 mg/kg, po by HPLC analysis; format: ADME, organism-based; settings: in vivo
[37] = Half life in overnight fasted Sprague-Dawley rat at 20 mg/kg, iv by HPLC analysis; format: ADME, organism-based; settings: in vivo
[38] = Half life in overnight fasted Sprague-Dawley rat at 20 mg/kg, po by HPLC analysis; format: ADME, organism-based; settings: in vivo

Epidermal growth factor receptor (Homo sapiens), P00533 [L858R,T790M,C797S], sequence (P00533 whole entry T790M/C797S/L858R): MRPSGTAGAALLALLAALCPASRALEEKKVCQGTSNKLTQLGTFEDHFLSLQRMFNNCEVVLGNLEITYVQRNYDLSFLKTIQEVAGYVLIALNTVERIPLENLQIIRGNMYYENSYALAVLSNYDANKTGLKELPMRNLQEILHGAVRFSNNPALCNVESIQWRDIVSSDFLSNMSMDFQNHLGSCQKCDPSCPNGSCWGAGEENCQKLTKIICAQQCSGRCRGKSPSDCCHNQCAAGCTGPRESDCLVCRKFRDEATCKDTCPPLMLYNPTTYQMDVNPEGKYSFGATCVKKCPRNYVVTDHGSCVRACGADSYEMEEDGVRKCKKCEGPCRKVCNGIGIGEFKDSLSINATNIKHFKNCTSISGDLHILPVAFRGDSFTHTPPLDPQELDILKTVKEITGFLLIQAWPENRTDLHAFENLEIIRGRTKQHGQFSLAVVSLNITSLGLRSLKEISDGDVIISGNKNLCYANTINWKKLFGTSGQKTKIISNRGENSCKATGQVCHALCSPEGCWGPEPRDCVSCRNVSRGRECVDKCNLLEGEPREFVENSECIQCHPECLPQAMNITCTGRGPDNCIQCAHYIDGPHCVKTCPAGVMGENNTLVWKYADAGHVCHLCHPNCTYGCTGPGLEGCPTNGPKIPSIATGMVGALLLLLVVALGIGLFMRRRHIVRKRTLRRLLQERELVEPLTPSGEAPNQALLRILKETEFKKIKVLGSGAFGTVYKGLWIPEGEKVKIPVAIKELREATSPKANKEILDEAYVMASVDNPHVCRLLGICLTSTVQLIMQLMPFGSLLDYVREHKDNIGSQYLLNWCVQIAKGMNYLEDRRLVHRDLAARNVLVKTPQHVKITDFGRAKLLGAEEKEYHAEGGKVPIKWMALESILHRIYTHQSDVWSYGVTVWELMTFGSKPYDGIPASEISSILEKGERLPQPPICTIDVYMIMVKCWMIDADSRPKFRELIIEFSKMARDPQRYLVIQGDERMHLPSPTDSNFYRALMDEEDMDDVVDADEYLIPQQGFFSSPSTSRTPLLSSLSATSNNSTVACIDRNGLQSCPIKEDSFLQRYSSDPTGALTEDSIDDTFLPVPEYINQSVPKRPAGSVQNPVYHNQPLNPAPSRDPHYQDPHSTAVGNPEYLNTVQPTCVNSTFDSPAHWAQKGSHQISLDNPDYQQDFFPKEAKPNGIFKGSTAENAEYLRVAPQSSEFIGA
Serine/threonine-protein kinase AKT (Homo sapiens), sequence (P31749 whole entry, looked up): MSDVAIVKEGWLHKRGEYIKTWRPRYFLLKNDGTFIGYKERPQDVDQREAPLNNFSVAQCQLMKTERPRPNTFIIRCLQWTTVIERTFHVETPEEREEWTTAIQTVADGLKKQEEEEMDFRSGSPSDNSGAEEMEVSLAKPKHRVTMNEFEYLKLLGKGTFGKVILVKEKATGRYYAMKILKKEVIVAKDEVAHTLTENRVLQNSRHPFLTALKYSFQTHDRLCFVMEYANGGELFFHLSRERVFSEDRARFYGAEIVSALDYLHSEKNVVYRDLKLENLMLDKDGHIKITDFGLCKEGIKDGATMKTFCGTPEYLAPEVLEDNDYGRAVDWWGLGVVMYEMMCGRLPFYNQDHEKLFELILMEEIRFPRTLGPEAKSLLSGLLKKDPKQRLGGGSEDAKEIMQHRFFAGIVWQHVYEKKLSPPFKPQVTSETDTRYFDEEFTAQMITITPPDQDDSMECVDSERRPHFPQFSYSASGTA
Serine/threonine-protein kinase AKT (Homo sapiens), sequence (P31751 whole entry, looked up): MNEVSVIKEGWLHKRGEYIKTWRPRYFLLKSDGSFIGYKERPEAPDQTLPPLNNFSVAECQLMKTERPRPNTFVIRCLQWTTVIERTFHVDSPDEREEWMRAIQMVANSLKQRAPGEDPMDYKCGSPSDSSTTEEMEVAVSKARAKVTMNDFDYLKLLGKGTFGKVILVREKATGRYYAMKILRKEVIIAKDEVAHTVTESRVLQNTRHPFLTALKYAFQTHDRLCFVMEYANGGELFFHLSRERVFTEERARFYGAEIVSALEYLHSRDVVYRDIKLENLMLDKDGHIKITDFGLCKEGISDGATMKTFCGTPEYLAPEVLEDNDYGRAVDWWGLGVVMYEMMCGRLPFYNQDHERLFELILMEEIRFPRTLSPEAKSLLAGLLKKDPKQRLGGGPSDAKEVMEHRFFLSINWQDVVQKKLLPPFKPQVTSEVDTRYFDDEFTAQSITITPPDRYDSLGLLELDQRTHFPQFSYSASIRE
Serine/threonine-protein kinase AKT (Homo sapiens), sequence (Q9Y243 whole entry, looked up): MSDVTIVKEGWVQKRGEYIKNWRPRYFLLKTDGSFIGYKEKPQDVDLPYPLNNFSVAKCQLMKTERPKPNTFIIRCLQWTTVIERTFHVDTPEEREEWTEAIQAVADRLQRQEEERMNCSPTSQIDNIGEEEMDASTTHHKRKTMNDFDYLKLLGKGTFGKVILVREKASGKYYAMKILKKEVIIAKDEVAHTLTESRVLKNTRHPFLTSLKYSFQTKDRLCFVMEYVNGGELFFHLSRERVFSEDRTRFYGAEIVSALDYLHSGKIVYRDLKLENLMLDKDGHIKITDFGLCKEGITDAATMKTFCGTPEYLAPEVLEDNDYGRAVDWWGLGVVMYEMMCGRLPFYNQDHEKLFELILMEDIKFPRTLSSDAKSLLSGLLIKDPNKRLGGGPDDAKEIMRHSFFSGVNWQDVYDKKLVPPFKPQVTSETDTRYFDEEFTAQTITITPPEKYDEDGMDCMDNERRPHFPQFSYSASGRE
Epidermal growth factor receptor, sequence (P00533 25-1210 T790M/C797S/L858R limits assumed): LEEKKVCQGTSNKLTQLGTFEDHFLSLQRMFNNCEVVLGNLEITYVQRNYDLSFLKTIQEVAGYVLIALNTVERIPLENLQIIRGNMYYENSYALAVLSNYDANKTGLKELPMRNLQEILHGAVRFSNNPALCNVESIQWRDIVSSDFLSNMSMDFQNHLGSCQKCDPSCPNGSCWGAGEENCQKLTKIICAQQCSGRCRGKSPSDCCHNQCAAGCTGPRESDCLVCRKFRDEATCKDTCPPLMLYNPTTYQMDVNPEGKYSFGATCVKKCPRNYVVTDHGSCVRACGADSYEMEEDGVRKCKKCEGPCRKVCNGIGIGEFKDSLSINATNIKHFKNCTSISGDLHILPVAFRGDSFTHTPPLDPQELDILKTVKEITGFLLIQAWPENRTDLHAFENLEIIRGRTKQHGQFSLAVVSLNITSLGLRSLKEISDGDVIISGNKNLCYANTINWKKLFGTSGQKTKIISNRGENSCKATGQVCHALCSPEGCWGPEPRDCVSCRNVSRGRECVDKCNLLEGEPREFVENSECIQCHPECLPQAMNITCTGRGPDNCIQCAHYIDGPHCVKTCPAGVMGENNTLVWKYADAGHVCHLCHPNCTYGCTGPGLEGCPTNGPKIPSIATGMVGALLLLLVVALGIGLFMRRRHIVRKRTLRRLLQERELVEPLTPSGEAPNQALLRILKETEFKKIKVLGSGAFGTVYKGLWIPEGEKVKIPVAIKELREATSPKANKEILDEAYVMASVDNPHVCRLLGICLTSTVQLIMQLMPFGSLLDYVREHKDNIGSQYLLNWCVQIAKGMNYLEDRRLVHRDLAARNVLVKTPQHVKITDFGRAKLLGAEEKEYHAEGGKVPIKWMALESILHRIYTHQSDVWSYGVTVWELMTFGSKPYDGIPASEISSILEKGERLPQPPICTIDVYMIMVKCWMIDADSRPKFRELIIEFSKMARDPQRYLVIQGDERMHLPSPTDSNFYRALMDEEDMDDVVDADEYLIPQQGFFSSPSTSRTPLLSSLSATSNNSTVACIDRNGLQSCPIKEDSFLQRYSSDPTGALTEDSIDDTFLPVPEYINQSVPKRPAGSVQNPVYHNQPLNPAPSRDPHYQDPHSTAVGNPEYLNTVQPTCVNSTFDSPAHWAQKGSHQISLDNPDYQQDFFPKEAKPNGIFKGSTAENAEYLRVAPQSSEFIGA
Signal transducer and activator of transcription 3 (Homo sapiens), sequence (P40763 whole entry): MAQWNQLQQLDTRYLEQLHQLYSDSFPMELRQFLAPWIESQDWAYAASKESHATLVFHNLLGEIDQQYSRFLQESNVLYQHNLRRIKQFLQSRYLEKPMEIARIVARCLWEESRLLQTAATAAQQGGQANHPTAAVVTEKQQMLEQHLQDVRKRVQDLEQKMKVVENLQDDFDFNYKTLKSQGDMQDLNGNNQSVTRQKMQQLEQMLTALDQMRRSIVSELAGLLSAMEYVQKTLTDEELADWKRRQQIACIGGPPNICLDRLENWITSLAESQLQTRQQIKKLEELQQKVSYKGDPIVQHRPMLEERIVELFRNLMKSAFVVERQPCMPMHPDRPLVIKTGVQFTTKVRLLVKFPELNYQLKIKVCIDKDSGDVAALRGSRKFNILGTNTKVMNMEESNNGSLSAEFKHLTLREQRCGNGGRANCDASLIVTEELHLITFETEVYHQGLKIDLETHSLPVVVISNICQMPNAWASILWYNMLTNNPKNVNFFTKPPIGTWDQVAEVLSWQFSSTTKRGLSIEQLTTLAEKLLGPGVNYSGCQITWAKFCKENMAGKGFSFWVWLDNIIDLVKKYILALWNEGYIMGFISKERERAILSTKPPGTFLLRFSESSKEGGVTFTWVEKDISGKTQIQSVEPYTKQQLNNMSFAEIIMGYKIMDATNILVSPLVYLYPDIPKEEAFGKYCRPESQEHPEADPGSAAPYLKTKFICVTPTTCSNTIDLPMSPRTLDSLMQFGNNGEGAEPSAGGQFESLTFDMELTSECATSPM

Structure (SMILES): CN1CCN(c2ccc(Nc3ncc4cc(CNc5ccccc5)n(C5CCCC5)c4n3)cc2)CC1
- inhibition [1]: Active
- inhibition [2]: Active
- inhibition [3]: 83%
- inhibition [4]: 90%
- IC50 [5]: 17 nM
- IC50 (PC-9 [6]): 13 nM
- IC50 (A-431): 2970 nM
- IC50 (A549): 1030 nM
- Activity (PC-9 [7]): Active
- viability at 0.01 µM (PC-9 [8]): 93.1%
- Activity (PC-9 [9]): 1.21%
- Activity (PC-9 [10]): 4.53%
- Activity (PC-9 [11]): 1.14%
- viability at 0.05 µM (PC-9 [12]): 88.2%
- Activity (PC-9 [13]): 5.43%
- Activity (PC-9 [14]): 5.21%
- Activity (PC-9 [15]): 1.11%
- viability at 0.25 µM (PC-9 [16]): 75.4%
- Activity (PC-9 [17]): 6.8%
- Activity (PC-9 [18]): 10.7%
- Activity (PC-9 [19]): 7.03%
- inhibition [20]: Active
- Activity (PC-9 [21]): Dde
- Activity (PC-9 [22]): Active
- Activity [23]: Non-Toxic
- AUC(0-inf) [24]: 15900 ng·h/mL
- AUC(0-inf) [25]: 10500 ng·h/mL
- Cmax [26]: 6840 ng/mL
- Cmax [27]: 770 ng/mL
- Tmax [28]: 4.98 min
- Tmax [29]: 6 h
- bioavailability [30]: 66%
- MRT inf [31]: 16.4 h
- MRT inf [32]: 16.8 h
- Vd [33]: 16 L/kg
- Vdss [34]: 28.101 L/kg
- clearance [35]: 21.2 mL/min/kg
- CL/F [36]: 35.9 mL/min/kg
- half-life [37]: 8.92 h
- half-life [38]: 11.2 h
